# Source: ChEMBL document CHEMBL4406819, “Targeting the subpocket in xanthine oxidase: Design, synthesis, and biological evaluation of 2-[4-alkoxy-3-(1H-tetrazol-1-yl) phenyl]-6-oxo-1,6-dihydropyrimidine-5-carboxylic acid derivatives” (Eur J Med Chem, 2019)
# Activity calls are given as the source filed them. The calls are words filed in the database; no cut-off is given here.
# Tests used:
# Rattus norvegicus [1] = test: Hypouricemic activity in Sprague-Dawley rat model of potassium oxonate-induced acute hyperuricemia assessed as decrease in serum uric acid level at 10 mg/kg, ig administered 1 hr before potassium oxonate challenge and measured after 3 hrs
# Rattus norvegicus [2] = test: Hypouricemic activity in Sprague-Dawley rat model of potassium oxonate-induced acute hyperuricemia assessed as decrease in serum uric acid level at 5 mg/kg, ig administered 1 hr before potassium oxonate challenge and measured after 3 hrs
SMILES,Activity (Rattus norvegicus [1]),Activity (Rattus norvegicus [2])
Oc1ncnc2[nH]ncc12,Active,
Cc1nc(-c2ccc(OCC(C)C)c(C#N)c2)sc1C(=O)O,,Active
